Data as given in patent publication US12240825B2, “Oxexin 1 receptor antagonists” (Heptares Therapeutics Limited, priority 2019, dated 2025).

Columns and labels:
rats [1] = details: sodium lactate infusion and CO2 challenge models; cited from earlier work
Human OX1 receptor [2] = molecular target: T1, Human OX1 receptor (Homo sapiens (Human), UniProt O43613); experiment: [3H]-radioligand binding assay, OX1; details: competition binding, membranes of SF21 cells, Ki by Cheng-Prusoff
Excerpt: (§1) Cloning, Baculovirus generation, large-scale infection of SF21 cells and membrane preparation. Human OX1 or OX2 receptor were cloned into Invitrogen's (ThermoFisher Scientific, UK) Bac-to-Bac Baculovirus Expression System. P0 baculovirus was generated by transfecting SF9 cells with bacmid DNA using Cellfectin® II transfection reagent (ThermoFisher Scientific, UK, Catalog number 10362-100). Following P0 generation P1 virus was then generated ready for large scale infection and membrane preparation. SF21 cells were grown in expression medium ESF921 (Expression Systems, USA, catalog number 96-001-01) supplemented with 10% heat-inactivated FBS and 1% Pen/Strep and were infected at a cell density of 2.5×10^6 cells/mL and a multiplicity of infection of 1.0 for both human OX1R and OX2R. Incubation was carried out at over 48 h in a shaking incubator set at 27° C. The cell culture was then centrifuged at 2,500 rcf for 10 min at 4° C. The pellets were resuspended in cold PBS supplemented with Roche's Complete EDTA-free protease inhibitor cocktail tablets (Roche Applied Sciences, catalog number 05056489001), 1 mM PMSF and 1 mM EDTA. The resuspended cell paste was then centrifuged at 3,273 rcf for 12 min at 4° C. The supernatant was discarded and the pellet frozen at −80° C. The cell pellet from a 4 L culture was resuspended in buffer containing 50 mM HEPES pH 7.5, 150 mM NaCl, 8 Roche EDTA-Free protease inhibitor cocktail tablets and 1 mM PMSF. The suspension was left stirring at rt for 1 h and then homogenised for 90 s at 9,500 rpm using a VDI 25 (VWR, USA) homogeniser. The cells were then lysed using a Microfluidiser processor M-110L Pneumatic (Microfluidics, USA) at 60 PSI and membranes collected by ultracentrifugation at 204.7 k×g for 1 h. The supernatant was discarded and the pellet was resuspended and homogenised in 90 s at 9,500 rpm in 50 mL (25 mL for each 2 L culture) of buffer containing 50 mM Hepes pH 7.5, 150 mM NaCl, 3 Roche EDTA-free protease inhibitor cocktail tablets and 1 mM PMSF. The resulting membranes were then stored at −80° C.
(§2) [^3H]-radioligand binding assay. After thawing, membrane homogenates were resuspended in the binding buffer (8.5 mM HEPES, pH 7.4, 1.3 mM CaCl2, 1.2 mM MgSO4, 118 mM NaCl, 4.7 mM KCl, 4 mM NaHCO3, 1.2 mM KH2PO4, 11 mM glucose) to a final assay concentration of 6.4 μg (OX1) or 1.4 μg (OX2) protein per well. Saturation isotherms were determined by the addition of various concentrations (0-30 nM) of [^3H]-4-(2,6-difluoro-4-methoxybenzyl)-2-(5,6-dimethoxypyridin-3-yl)-2H-1,2,4-benzothiadiazin-3(4H)-one 1,1-dioxide (Christopher et al, MedChemComm., 2015, 6, 947-955) in a total reaction volume of 250 μL for 90 min at rt. At the end of the incubation, membranes were filtered onto a 96-well GF/B filter pre-incubated with 0.5% polyethylenimine, with a Tomtec cell harvester and washed 5 times with 0.5 mL distilled water. Non-specific binding (NSB) was measured in the presence of 3.33 μM [4-(5-chloro-1,3-benzoxazol-2-yl)-7-methyl-1,4-diazepan-1-yl][5-methyl-2-(2H-1,2,3-triazol-2-yl)phenyl]methanone (Wertz et al, Angew. Chem. Int. Ed., 2011, 50, 11511-11515). Radioactivity on the filter was counted (1 min) on a Microbeta radiometric plate counter (Perkin Elmer) after addition of 50 μL of scintillation fluid (LabLogic: Part #SG-BXX-14). […] IC50 values were derived from the inhibition curve and the equilibrium dissociation constant (Ki) values were calculated using the Cheng-Prusoff equation.

Human OX2 receptor [3] = molecular target: T2, Human OX2 receptor (Homo sapiens (Human), UniProt O43614); experiment: [3H]-radioligand binding assay, OX2; details: competition binding, membranes of SF21 cells, Ki by Cheng-Prusoff
T2 sequence (O43614 whole entry): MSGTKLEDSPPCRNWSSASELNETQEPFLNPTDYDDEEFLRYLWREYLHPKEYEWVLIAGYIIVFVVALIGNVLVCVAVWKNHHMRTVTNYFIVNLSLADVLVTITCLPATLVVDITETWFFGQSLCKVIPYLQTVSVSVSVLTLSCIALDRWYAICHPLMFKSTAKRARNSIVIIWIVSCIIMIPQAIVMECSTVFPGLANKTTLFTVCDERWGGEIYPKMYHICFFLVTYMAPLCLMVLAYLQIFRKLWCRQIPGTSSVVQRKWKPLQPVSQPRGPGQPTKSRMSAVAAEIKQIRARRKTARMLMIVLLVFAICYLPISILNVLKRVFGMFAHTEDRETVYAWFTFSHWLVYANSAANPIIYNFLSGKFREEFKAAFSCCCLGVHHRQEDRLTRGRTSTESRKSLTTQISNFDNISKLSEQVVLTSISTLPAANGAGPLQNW
Excerpt: as §1, §2

Human OX1 receptor [4] = molecular target: T1, Human OX1 receptor; experiment: IPone accumulation assay, CHO cells expressing OX1; assay type: cell-based; details: antagonism of orexin A (EC80 ~20 nM)-induced inositol phosphate turnover, read-out: fpKb average OX1 (converted)
Experimental: Generation of CHO stable cell lines expressing the human OX1R and OX2R. Stable cell lines for the human OX1R and OX2R receptors were generated through the transfection of CHO cells using the transfection reagent Genejuice (Novagen number 70967) and cDNA coding for either the human OX1R or OX2R. Cells were cultured in Sigma Nutrient Mixture F-12 Ham media (catalog number N6658) supplemented with 10% heat-inactivated FBS. Forty-eight hours after transfection, cells were harvested and placed under geneticin selection by culturing in Sigma Nutrient Mixture F-12 Ham media supplemented with 10% heat-inactivated FBS and geneticin (ThermoFisher Catalog number: 10131035). Selection of the final stable clone for each receptor was made on the basis of receptor expression, assay signal to noise and robustness though increasing passage. Selected clones for the human OX1R and OX2R were then frozen down into liquid nitrogen using Cell Freezing Medium-DMSO (Sigma-Aldrich catalog number: C6164).
(§3) IPone accumulation assay. A CHO cell line stably expressing either human OX1 or OX2 receptor was used with the IPone HTRF assay kit (CisBio: Part #62IPAPEJ) to measure receptor activation. The assay was optimised to measure the ability (potency; fpKb) of antagonists to reduce agonist (orexin A)-induced inositol phosphate turnover. Briefly, cells were plated onto half area 96-well white walled plates at a density of 12,500 cells/well. Sixteen hours post-plating cell growth media was replaced with antagonist concentration-response curve diluted in stimulation buffer (supplied with the kit). Cells were incubated in a humidified incubator (37° C.) for 30 min before an EC80 challenge concentration (˜20 nM (OX1) and 40 nM (OX2)) of orexin A (Tocris catalogue number 1455). After 30 min stimulation in a humidified incubator (37° C.) the assay was terminated by the addition of detection mixture as per manufacturer's instructions. The concentration of compound which reduced orexin-A stimulated turnover of inositol phosphates by 50% (IC50) was calculated by fitting to a four parameter sigmoidal dose response curve. The IC50 values were converted to fpKB values using the orexin A pEC50 value estimated on each plate as well as the challenge concentration interpolated from the orexin A control curve.

Human OX2 receptor [5] = molecular target: T2, Human OX2 receptor; experiment: IPone accumulation assay, CHO cells expressing OX2; assay type: cell-based; details: antagonism of orexin A (EC80 40 nM)-induced inositol phosphate turnover, read-out: fpKb average OX2 (converted)
Experimental: as §3, with “Generation of CHO stable cell lines expressing the human OX1R and OX2R. Stable cell lines for the human OX1R and OX2R receptors were generated through the transfection of CHO cells using the transfection reagent Genejuice (Novagen number 70967) and cDNA coding for either the human OX1R or OX2R. Cells were cultured in Sigma Nutrient Mixture F-12 Ham media (catalog number N6658) supplemented with 10% heat-inactivated FBS. Forty-eight hours after transfection, cells were harvested and placed under geneticin selection by culturing in Sigma Nutrient Mixture F-12 Ham media supplemented with 10% heat-inactivated FBS and geneticin (ThermoFisher Catalog number: 10131035). Selection of the final stable clone for each receptor was made on the basis of receptor expression, assay signal to noise and robustness though increasing passage. Selected clones for the human OX1R and OX2R were then frozen down into liquid nitrogen using Cell Freezing Medium-DMSO (Sigma-Aldrich catalog number: C6164). IPone accumulation” for “IPone accumulation”, “(CisBio: Part #62[…]) to measure” for “(CisBio: Part #62IPAPEJ) to measure”, “challenge concentration ( 20 nM (OX1)” for “challenge concentration (˜20 nM (OX1)”

rats [6] = details: cited from earlier work
rats [7] = details: cited from earlier work; remark: listed apart in the source
rats [8] = details: intraperitoneal administration; cited from earlier work

T1 sequence (O43613 whole entry): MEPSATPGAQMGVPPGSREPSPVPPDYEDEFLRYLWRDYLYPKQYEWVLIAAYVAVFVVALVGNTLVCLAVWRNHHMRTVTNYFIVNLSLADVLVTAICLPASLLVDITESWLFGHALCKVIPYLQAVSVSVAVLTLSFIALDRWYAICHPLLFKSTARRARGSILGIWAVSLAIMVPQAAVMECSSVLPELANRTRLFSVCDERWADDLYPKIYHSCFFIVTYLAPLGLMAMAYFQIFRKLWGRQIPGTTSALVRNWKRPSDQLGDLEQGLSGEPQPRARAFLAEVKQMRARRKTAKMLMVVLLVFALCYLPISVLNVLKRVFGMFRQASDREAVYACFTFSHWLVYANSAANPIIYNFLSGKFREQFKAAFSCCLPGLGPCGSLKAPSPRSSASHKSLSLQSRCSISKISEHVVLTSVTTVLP

Row | SMILES | panic-like behaviours and cardiovascular responses (rats [1]) | pKi average OX1 (Human OX1 receptor [2]) | pKi average OX2 (Human OX2 receptor [3]) | Kb (Human OX1 receptor [4]) [µM] | Kb (Human OX2 receptor [5]) [µM] | nicotine self-administration (rats [6]) | alcohol self-administration (rats [7]) | opiate withdrawal symptoms (rats [8])
1 | O=C(c1cccc(F)c1-c1ncccn1)N1[C@@H]2CC[C@H]1[C@H](Nc1cnc(C(F)(F)F)cn1)C2 [JNJ-54717793] | attenuated | – | – | – | – | – | – | –
2 | CC(=O)Nc1cc(C(=O)N[C@H]2CCC[C@@H]2COc2ccc(F)cc2)c(-n2nccn2)cn1 [Example 23, 2-acetamido-N-[(1S,2S)-2-[(4-fluorophenoxy)methyl]cyclopentyl]-5-(triazol-2-yl)pyridine-4-carboxamide] | – | 8.9 | 6.5 | 0.00316 | > 0.0631 | – | – | –
3 | CC(=O)Nc1ccc(-c2ncccn2)c(C(=O)N[C@H]2CCC[C@@H]2COc2ccc(F)cc2)c1F [Example 2, 3-acetamido-2-fluoro-N-[(1S,2S)-2-[(4-fluorophenoxy)methyl]cyclopentyl]-6-pyrimidin-2-yl-benzamide] | – | 7.7 | 5.6 | 0.0501 | > 2.51 | – | – | –
4 | Cc1nc2ccc(NC(=O)Nc3ccnc4cccnc34)cc2o1 [SB-334867] | – | – | – | – | – | decreases | decreases | significantly reduce
5 | CC(=O)Nc1cnc(-n2nccn2)c(C(=O)N[C@H]2CCC[C@@H]2COc2ccc(F)cc2)c1 [Example 25, 5-acetamido-N-[(1S,2S)-2-[(4-fluorophenoxy)methyl]cyclopentyl]-2-(triazol-2-yl)pyridine-3-carboxamide] | – | 8.5 | 5.5 | 0.00398 | > 0.631 | – | – | –
6 | CC(=O)Nc1ccc(-n2nccn2)c(C(=O)N[C@H]2CCC[C@@H]2COc2ccc(F)cc2)n1 [Example 3, 6-acetamido-N-[(1S,2S)-2-[(4-fluorophenoxy)methyl]cyclopentyl]-3-(triazol-2-yl)pyridine-2-carboxamide] | – | 8.3 | 5.4 | 0.02 | 1.26 | – | – | –
7 | O=C(N[C@H]1CCC[C@@H]1COc1ccc(F)cc1)c1nc(NCC(F)F)ccc1-n1nccn1 [Example 19, 6-(2,2-difluoroethylamino)-N-[(1S,2S)-2-[(4-fluorophenoxy)methyl]cyclopentyl]-3-(triazol-2-yl)pyridine-2-carboxamide] | – | 8.8 | 6.6 | 0.0158 | > 0.501 | – | – | –
8 | COC(=O)Nc1ccc(-n2nccn2)c(C(=O)N[C@H]2CCC[C@@H]2COc2ccc(F)cc2)n1 [Example 10, methyl N-[6-[[(1S,2S)-2-[(4-fluorophenoxy)methyl]cyclopentyl]carbamoyl]-5-(triazol-2-yl)-2-pyridyl]carbamate] | – | 8.1 | <5.9 | 0.0794 | > 0.794 | – | – | –
